Data: PMC9862819, “Structural Characterization of Murine Phosphodiesterase 5 Isoforms and Involvement of Cysteine Residues in Supramolecular Assembly” (International Journal of Molecular Sciences, 2023)

Experiments:
MmPDE5A3 [1] = biological target: T1, MmPDE5A3 (Mus musculus, UniProt Q8CG03); assay: [3H]cGMP hydrolysis assay; also spectrophotometric thiol titration and native PAGE; type: biochemical; set-up: gene Pde5a; full-length MmPDE5A3 isoform (823 amino acids common to the three isoforms), 3XFLAG tag
MmPDE5A3 [2] = biological target: T1, MmPDE5A3; set-up: gene Pde5a
MmPDE5A3 [3] = biological target: T1, MmPDE5A3; assay: native PAGE conformational shift; [3H]cGMP hydrolysis; added protection of Cys with sildenafil; type: binding; set-up: gene Pde5a; full-length MmPDE5A3 isoform (823 amino acids common to the three isoforms), 3XFLAG tag

Compound O=C(O)c1cc(SSc2ccc([N+](=O)[O-])c(C(=O)O)c2)ccc1[N+](=O)[O-] [DTNB, 5,5-dithio-bis-(2-nitrobenzoic acid)] has an IC50 (MmPDE5A3 [1]) of roughly 30 µM.
In the case of CCCc1nn(C)c2c(=O)[nH]c(-c3cc(S(=O)(=O)N4CCN(C)CC4)ccc3OCC)nc12 [Sild, sildenafil], the “native PAGE conformational shift and protection of Cys from DTNB titration” value (MmPDE5A3 [2]) is reported as “the reactive Cys were close to the active site and were shielded by the inhibitor”.
In the case of Nc1nc2c(ncn2[C@@H]2O[C@@H]3COP(=O)(O)O[C@H]3[C@H]2O)c(=O)[nH]1 [cGMP], the “native PAGE conformational shift; [3H]cGMP hydrolysis; added protection of Cys w” value (MmPDE5A3 [3]) is reported as “the conformation of D3 was also the main outcome of the binding of the substrate and inhibitor (cGMP and sildenafil”.
